Measured values reported in patent publication US11613525B2 (CTXT PTY LIMITED, priority 2018, dated 2023).
Read-outs that look alike come from different tables or passages of the source.

What was measured:
[1] = target: huSTING (HAQ) (Homo sapiens (Human), UniProt Q86WV6, G230A/H232R/R293Q/R71H); assay: THP-1 reporter cell line assay, THP-1 STING Lucia ISG cells; format: cell-based; conditions: THP-1 STING Lucia ISG cells, read-out: Cellular EC50 huSTING (HAQ)
[2] = target: huSTING (WT) (Homo sapiens (Human), UniProt Q86WV6, H232R); assay: THP-1 reporter cell line assay, THP-1-Dual KI-hSTING-R232 cells; format: cell-based; conditions: read-out: Cellular EC50 huSTING (WT)
[3] = modified method, top concentration 40 μM, pin tool, EnVision

huSTING (HAQ), sequence (Q86WV6 whole entry R71H/G230A/H232R/R293Q): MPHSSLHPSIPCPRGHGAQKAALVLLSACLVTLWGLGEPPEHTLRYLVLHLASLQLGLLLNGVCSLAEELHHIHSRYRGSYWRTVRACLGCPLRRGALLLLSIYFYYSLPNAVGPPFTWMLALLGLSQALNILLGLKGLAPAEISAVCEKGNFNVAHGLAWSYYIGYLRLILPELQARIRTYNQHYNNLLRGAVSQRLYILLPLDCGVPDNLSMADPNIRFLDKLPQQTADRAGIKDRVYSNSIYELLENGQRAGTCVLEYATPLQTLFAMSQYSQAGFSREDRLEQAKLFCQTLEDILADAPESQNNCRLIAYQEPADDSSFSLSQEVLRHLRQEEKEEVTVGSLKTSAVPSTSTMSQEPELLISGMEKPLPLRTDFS
huSTING (WT), sequence (Q86WV6 whole entry H232R): as the sequence (Q86WV6 whole entry R71H/G230A/H232R/R293Q) above, with H71R, A230G, Q293R counted along it

Row | Structure (SMILES) | EC50 [1, 3] [µM] | EC50 [2] [µM] | EC50 ([1]; 24 h, top concentration 50 μM) [µM]
1 | CC(C)(C)C(=O)OCOC(=O)c1sc2cccc(Cl)c2c1COc1c(F)cc(C(N)=O)cc1F [Example 173, (Pivaloyloxy)methyl 3-((4-carbamoyl-2,6-difluorophenoxy)methyl)-4-chlorobenzo[b]thiophene-2-carboxylate] | 0.055 | 0.208 | –
2 | CCOC(=O)c1sc2cccc(F)c2c1COc1ccc(C(N)=O)c(Cl)c1 [Example 49, Ethyl 3-((4-carbamoyl-3-chlorophenoxy)methyl)-4-fluorobenzo[b]thiophene-2-carboxylate] | – | 24.1 | 17.2
3 | CN1CC(OC(=O)c2sc3cccc(Cl)c3c2COc2c(F)cc(C(N)=O)cc2F)C1 [Example 164, 1-Methylazetidin-3-yl 3-((4-carbamoyl-2,6-difluorophenoxy)methyl)-4-chlorobenzo[b]thiophene-2-carboxylate] | 0.027 | 0.249 | –
4 | CCOC(=O)c1sc2cccc(C#N)c2c1COc1ccc(C(N)=O)cc1 [Example 62, Ethyl 3-((4-carbamoylphenoxy)methyl)-4-cyanobenzo[b]thiophene-2-carboxylate] | – | 1.65 | 0.95
5 | CCOC(=O)c1sc2cccnc2c1COc1ccc(C(N)=O)cc1 [Example 23, Ethyl 3-((4-carbamoylphenoxy)methyl)thieno[3,2-b]pyridine-2-carboxylate] | – | 16.9 | 7.61
6 | CCOC(=O)c1sc2cncc(Cl)c2c1COc1c(F)cc(C(N)=O)cc1F [Example 170, Ethyl 3-((4-carbamoyl-2,6-difluorophenoxy)methyl)-4-chlorothieno[2,3-c]pyridine-2-carboxylate] | 0.189 | 0.45 | –
7 | COc1cccc2sc(C(=O)OCOC(=O)C(C)(C)C)c(COc3c(F)cc(C(N)=O)cc3F)c12 [Example 123, (Pivaloyloxy)methyl 3-((4-carbamoyl-2,6-difluorophenoxy)methyl)-4-methoxybenzo[b]thiophene-2-carboxylate] | 0.049 | 0.335 | –
8 | C=Cc1cc(OCc2c(C(=O)OCC)sc3cccc(Cl)c23)ccc1C(N)=O [Example 168, Ethyl 3-((4-carbamoyl-3-vinylphenoxy)methyl)-4-chlorobenzo[b]thiophene-2-carboxylate] | 7.44 | > 40 | –
9 | CC(C)(C)OC(=O)OCOC(=O)c1sc2cccc(Cl)c2c1COc1c(F)cc(C(N)=O)cc1F [Example 130, ((tert-Butoxycarbonyl)oxy)methyl 3-((4-carbamoyl-2,6-difluorophenoxy)methyl)-4-chlorobenzo[b]thiophene-2-carboxylate] | 0.06 | 0.687 | –
10 | CC(OC(=O)OC(C)(C)C)OC(=O)c1sc2cccc(Cl)c2c1COc1c(F)cc(C(N)=O)cc1F (centres unmarked) [Example 129, 1-((tert-Butoxycarbonyl)oxy)ethyl 3-((4-carbamoyl-2,6-difluorophenoxy)methyl)-4-chlorobenzo[b]thiophene-2-carboxylate] | 0.119 | 1.58 | –
11 | CCOC(=O)c1sc2cccc(C3CC3)c2c1COc1ccc(C(N)=O)cc1 [Example 60, Ethyl 3-((4-carbamoylphenoxy)methyl)-4-cyclopropylbenzo[b]thiophene-2-carboxylate] | – | 47.4 | 0.827
12 | CCOC(=O)c1sc2cccc(Cl)c2c1COc1c(Cl)cc(C(N)=O)cc1Cl [Example 39, Ethyl 3-((4-carbamoyl-2,6-dichlorophenoxy)methyl)-4-chlorobenzo[b]thiophene-2-carboxylate] | – | 1.78 | 1.48
13 | COC(=O)c1sc2cccc(F)c2c1COc1ccc(C(N)=O)cc1 [Example 141, Methyl 3-((4-carbamoylphenoxy)methyl)-4-fluorobenzo[b]thiophene-2-carboxylate] | 1.77 | 3.34 | –
14 | Cc1ccc2sc(C(=O)OCOC(=O)C(C)(C)C)c(COc3ccc(C(N)=O)cc3)c2c1Cl [Example 174, (Pivaloyloxy)methyl 3-((4-carbamoylphenoxy)methyl)-4-chloro-5-methylbenzo[b]thiophene-2-carboxylate] | 4.72 | 25.6 | –
15 | CCOC(=O)c1sc2cccc(Cl)c2c1COc1ccc(C(N)=O)cc1Cl [Example 37, Ethyl 3-((4-carbamoyl-2-chlorophenoxy)methyl)-4-chlorobenzo[b]thiophene-2-carboxylate] | – | 4.77 | 3.84
16 | COC(=O)N1CCC(OC(=O)c2sc3cccc(Cl)c3c2COc2c(F)cc(C(N)=O)cc2F)CC1 [Example 163, Methyl 4-((3-((4-carbamoyl-2,6-difluorophenoxy)methyl)-4-chlorobenzo[b]thiophene-2-carbonyl)oxy)piperidine-1-carboxylate] | 0.062 | 1.56 | –
17 | CCOC(=O)c1sc2c(Br)ccc(Cl)c2c1COc1c(F)cc(C(N)=O)cc1F [Example 99, Ethyl 7-bromo-3-((4-carbamoyl-2,6-difluorophenoxy)methyl)-4-chlorobenzo[b]thiophene-2-carboxylate] | 0.022 | 0.135 | –
18 | CCOC(=O)c1sc2cccc(Cl)c2c1COc1ccc(C(N)=O)c(-c2cn[nH]c2)c1 [Example 151, Ethyl 3-((4-carbamoyl-3-(1H-pyrazol-4-yl)phenoxy)methyl)-4-chlorobenzo[b]thiophene-2-carboxylate] | 1.82 | 3.46 | –
19 | COc1cccc2sc(C(=O)OC3CCCC3)c(COc3ccc(C(N)=O)cc3)c12 [Example 155, Cyclopentyl 3-((4-carbamoylphenoxy)methyl)-4-methoxybenzo[b]thiophene-2-carboxylate] | 0.23 | 3.82 | –
20 | CCOC(=O)c1sc2cccc(Cl)c2c1COc1ccc(C(N)=O)cc1OC [Example 29, Ethyl 3-((4-carbamoyl-2-methoxyphenoxy)methyl)-4-chlorobenzo[b]thiophene-2-carboxylate] | – | 6.5 | 2.68
21 | CCOC(=O)c1sc2cccc(Cl)c2c1COc1ccc(C(N)=O)cc1C#N [Example 43, Ethyl 3-((4-carbamoyl-2-cyanophenoxy)methyl)-4-chlorobenzo[b]thiophene-2-carboxylate] | – | 3.78 | 1.35
22 | CCOC(=O)c1sc2ccnc(OC)c2c1COc1c(F)cc(C(N)=O)cc1CO [Example 121, Ethyl 3-((4-carbamoyl-2-fluoro-6-(hydroxymethyl)phenoxy)methyl)-4-methoxythieno[3,2-c]pyridine-2-carboxylate] | 0.059 | 0.58 | –
23 | CCOC(=O)c1sc2ccc(F)c(Cl)c2c1COc1c(F)cc(C(N)=O)cc1F [Example 85, Ethyl 3-((4-carbamoyl-2,6-difluorophenoxy)methyl)-4-chloro-5-fluorobenzo[b]thiophene-2-carboxylate] | – | > 50 | 1.63
24 | CCOC(=O)c1sc2cccc(C3CC3)c2c1COc1c(F)cc(C(N)=O)cc1F [Example 142, Ethyl 3-((4-carbamoyl-2,6-difluorophenoxy)methyl)-4-cyclopropylbenzo[b]thiophene-2-carboxylate] | 0.181 | 3.12 | –
25 | COc1cccc2sc(C(=O)OC(C)C)c(COc3ccc(C(N)=O)cc3)c12 [Example 154, Isopropyl 3-((4-carbamoylphenoxy)methyl)-4-methoxybenzo[b]thiophene-2-carboxylate] | 0.448 | 2.05 | –
